From patent publication US6831199B1, “Pyrimidine compounds and derivatives thereof” (G. D. Searle & Co., priority 1995, dated 2004)
Where a name gives a salt, the structure may show the parent alone. Read-outs that look alike come from different tables or passages of the source.

Experiments:
[1] = target: T1, Human fibrinogen receptor (αIIbβ3) (Homo sapiens, UniProt P05106+P08514); test: Purified IIb/IIIa receptor assay (solid phase receptor assay, competition with biotinylated vitronectin); type: binding; conditions: read-out: IIb/IIIa IC50
T1 construct: Human fibrinogen receptor (αIIbβ3) was purified from outdated platelets; from tissue; host or cells: outdated human platelets
T1 sequence (P08514 32-887 limits assumed): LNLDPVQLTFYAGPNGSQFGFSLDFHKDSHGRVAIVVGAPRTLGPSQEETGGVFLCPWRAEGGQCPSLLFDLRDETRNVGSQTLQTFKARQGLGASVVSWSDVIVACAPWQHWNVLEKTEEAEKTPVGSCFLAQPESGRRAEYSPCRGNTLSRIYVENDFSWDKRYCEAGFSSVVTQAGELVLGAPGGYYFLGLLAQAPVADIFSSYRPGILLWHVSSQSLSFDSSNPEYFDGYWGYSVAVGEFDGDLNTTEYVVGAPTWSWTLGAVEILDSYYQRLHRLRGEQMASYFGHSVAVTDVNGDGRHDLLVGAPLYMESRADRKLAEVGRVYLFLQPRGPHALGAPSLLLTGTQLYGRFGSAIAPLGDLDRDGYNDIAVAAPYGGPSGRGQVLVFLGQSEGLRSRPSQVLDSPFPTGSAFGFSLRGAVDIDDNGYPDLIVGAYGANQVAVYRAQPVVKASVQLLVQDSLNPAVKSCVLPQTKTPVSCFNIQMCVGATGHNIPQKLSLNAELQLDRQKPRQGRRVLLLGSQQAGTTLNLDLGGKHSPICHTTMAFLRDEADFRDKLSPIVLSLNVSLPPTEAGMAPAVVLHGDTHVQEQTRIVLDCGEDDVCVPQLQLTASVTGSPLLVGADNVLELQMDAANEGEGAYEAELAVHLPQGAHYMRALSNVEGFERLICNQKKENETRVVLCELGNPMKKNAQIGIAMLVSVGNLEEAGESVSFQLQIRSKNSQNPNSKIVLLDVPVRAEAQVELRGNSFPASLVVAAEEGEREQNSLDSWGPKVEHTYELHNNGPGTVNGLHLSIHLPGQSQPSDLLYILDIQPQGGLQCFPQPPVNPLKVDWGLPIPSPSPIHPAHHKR
T1 sequence (P08514 891-1039 limits assumed): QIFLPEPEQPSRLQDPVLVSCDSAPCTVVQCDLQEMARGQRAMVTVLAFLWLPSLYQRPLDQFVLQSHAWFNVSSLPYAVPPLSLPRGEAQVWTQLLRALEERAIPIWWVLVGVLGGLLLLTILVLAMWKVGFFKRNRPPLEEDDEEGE
T1 sequence (P05106 27-788): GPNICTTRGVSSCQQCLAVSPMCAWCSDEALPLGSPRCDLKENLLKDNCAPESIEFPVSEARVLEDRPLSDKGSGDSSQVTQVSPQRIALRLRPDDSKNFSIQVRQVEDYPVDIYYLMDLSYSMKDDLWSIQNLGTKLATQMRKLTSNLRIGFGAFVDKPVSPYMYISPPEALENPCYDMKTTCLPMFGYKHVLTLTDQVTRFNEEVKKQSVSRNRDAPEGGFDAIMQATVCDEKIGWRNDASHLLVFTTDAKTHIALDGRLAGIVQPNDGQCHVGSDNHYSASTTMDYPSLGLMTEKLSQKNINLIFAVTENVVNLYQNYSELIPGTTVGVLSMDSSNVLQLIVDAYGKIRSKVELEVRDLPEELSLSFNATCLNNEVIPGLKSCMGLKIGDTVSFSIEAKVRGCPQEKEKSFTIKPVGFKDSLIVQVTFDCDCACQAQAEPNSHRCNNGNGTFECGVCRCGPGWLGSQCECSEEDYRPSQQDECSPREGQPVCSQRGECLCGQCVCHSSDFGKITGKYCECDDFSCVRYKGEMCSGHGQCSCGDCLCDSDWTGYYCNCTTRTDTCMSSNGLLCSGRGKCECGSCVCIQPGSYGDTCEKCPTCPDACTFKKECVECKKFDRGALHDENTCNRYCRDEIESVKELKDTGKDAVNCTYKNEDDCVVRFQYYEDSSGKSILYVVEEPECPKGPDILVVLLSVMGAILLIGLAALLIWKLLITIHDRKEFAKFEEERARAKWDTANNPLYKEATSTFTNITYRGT
Summary of the method: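 Purified platelet αIIbβ3 coated overnight at 4 °C in TBS with 1.0 mM Ca/Mg/Mn, pH 7.4, then BSA-blocked. Compounds (top 1.0×10^−4 M) competed with 1 nM biotinylated vitronectin for 2 h at room temperature. Bound label detected by HRP anti-biotin, A450; values normalized to no-competitor controls, four-parameter fit.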

platelet rich plasma = test: Human platelet rich plasma assay (ADP induced platelet aggregation); type: cell-based; conditions: Homo sapiens, Platelet, ADP induced platelet aggregation in human platelet rich plasma; read-out: Human PRP
Summary of the method: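 Citrated platelet-rich plasma from aspirin-free healthy human donors was stirred at 37 °C and preincubated with compound for 1 min. Aggregation was then triggered with ADP (added as a 200 uM solution) and recorded photometrically for 3 min. Dose–response curves were built from % inhibition of the maximal saline-control response.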

M21 human melanoma cells = test: M21 melanoma cell adhesion assay (αvβ3-dependent adhesion to human fibrinogen-coated plates); type: cell-based; conditions: read-out: M21 Melanoma Cells IC50
Procedure: M21 MELANOMA CELL ADHESION ASSASY
This assay involves an αvβ3-dependent adhesion of M21 human melanoma cells to human fibrinogen-coated plastic tissue culture dishes.
Fibrinogen was purified from human plasma. Fibronectin and plasminogen were eliminated from the preparation by passing the sample over gelatin-sepharose 4B and lysine-sepharose 4B resins, respectively. The fibrinogen is diluted to 10 μg/mL in coating buffer ([…] Tris-HCl, 150 mM NaCl, pH 7.4). 100 μL of diluted fibrinogen is added to each well of a 96-well Immulon 2 microtiter plate (Dynatech; Chantilly, Va.) and allowed to coat overnight at 4° C. Plates are blocked with 1% BSA (Miles/Pentex; Kankakee, Ill.) in adhesion buffer (Hank's balanced salt solution without Ca^++ or Mg^++ [HBSS−−], 50 mM Hepes, 1 mg/mL BSA, pH 7.4) for 1 hour at 37° C.
M21 human melanoma cells were provided by Dr. J. Smith, La Jolla Cancer Research Institute. M21 cells are harvested from tissue culture flasks by washing with HBSS−− and adding cell dissociation solution (Sigma) and incubating for 5 minutes at 37° C. Harvested cells are washed 3 times with adhesion assay buffer containing 200 μM Mn^++. Cells are counted and suspended to a density of 2×10^6/mL in adhesion assay buffer containing 200 μM Mn^++. M21 cells are pre-incubated with antagonists of αvβ3 for 30 minutes at room temperature. Following the pre-incubation, the solutions containing a mixture of cells and antagonists are added to each well of the microtiter plate and allowed to bind for 30 minutes at 37° C.
Following adhesion, plates are gently washed 3 times with 200 μL of wash buffer (50 mM Tris-HCl, 150 mM NaCl, pH 7.4) using large bore pipet tips. Plates are briefly blotted dry and 100 μL of cell lysis buffer (50 mM sodium acetate, pH 5.0, 0.5% Triton X-100, 0.3 mg/mL p-nitrophenyl phosphate [Sigma] is added to each well. Plates are incubated for 60 minutes at 37° C. and 50 μL of 1N NaOH is added to stop the reaction. The absorbance of the wells at […] is read using an automatic plate reader.

O=C(O)CC(NC(=O)CNC(=O)c1cccc(NC2=NCCCCC2)c1)c1cccnc1 (racemic) [Example 12, (±)β-[[2-[[[3-[(3,4,5,6-tetrahydro-2H-azepin-7-yl)amino]phenyl]carbonyl]amino]acetyl]amino]pyridine-3-propanoic acid, bis(trifluoroacetate)salt]
IC50 [1]: 595 nM
IC50 (platelet rich plasma): > 200000 nM
IC50 (M21 human melanoma cells; Homo sapiens, M21): 9.32 nM

C#C[C@H](CC(=O)O)NC(=O)CNC(=O)c1cccc(NC(=N)N)c1 [Example 45, 3S-[[2-[[[3-[(aminoiminomethyl)amino]phenyl]carbonyl]amino]acetyl]amino]-4-pentynoic acid, hydrochloride salt]
IC50 [1]: 39.5 nM
IC50 (platelet rich plasma): 167000 nM
IC50 (M21 human melanoma cells; hydrochloride salt): 2.54 nM

NC(=O)Nc1cccc(C(=O)NCC(=O)NC(CC(=O)O)c2cccnc2)c1 (stereo not drawn) [Example 46, β-[[2-[[[3-(aminocarbonylamino)phenyl]carbonyl]amino]acetyl]amino]pyridine-3-propanoic acid, hydrochloride salt]
IC50 [1]: 1680 nM
IC50 (platelet rich plasma): > 200000 nM
IC50 (M21 human melanoma cells; Homo sapiens, M21): 147 nM

N=C(NCc1ccccc1)Nc1cccc(C(=O)NCC(=O)NC(CC(=O)O)c2cccnc2)c1 (racemic) [Example 24, (±)β-[[2-[[[3-[[imino[(phenylmethyl)amino]methyl]amino]phenyl]carbonyl]amino]acetyl]amino]pyridine-3-propanoic acid, bis(trifluoroacetate)salt]
IC50 [1]: 58.6 nM
IC50 (platelet rich plasma): > 200000 nM
IC50 (M21 human melanoma cells; Homo sapiens, M21): 12.7 nM

Cc1ccc(C(=O)NCC(=O)NC(CC(=O)O)c2cccnc2)cc1NC(=N)N (racemic) [Example 83, (±)β-[[2-[[[3-[(aminoiminomethyl)amino]-4-methylphenyl]carbonyl]amino]acetyl]amino]pyridine-3-propanoic acid, bis(trifluoroacetate)salt]
IC50 [1]: 97.7 nM
IC50 (platelet rich plasma): > 200000 nM
IC50 (M21 human melanoma cells; Homo sapiens, M21): 11 nM

N=C(N)Nc1cccc(C(=O)NCC(=O)NC(CC(=O)O)c2ccc3ccccc3c2)c1 (racemic) [Example 56, (±)β-[[2-[[[3-[(aminoiminomethyl)amino]phenyl]carbonyl]amino]acetyl]amino]naphthalene-2-propanoic acid, trifluoroacetate salt]
IC50 [1]: 65.3 nM
IC50 (platelet rich plasma): > 200000 nM
IC50 (M21 human melanoma cells; Homo sapiens, M21): 6.87 nM

N=C(N)Nc1cccc(C(=O)NCC(=O)NC(CC(=O)O)c2ccsc2)c1 (racemic) [Example 59, (±)β-[[2-[[[3-[(aminoiminomethyl)amino]phenyl]carbonyl]amino]acetyl]amino]thiophene-3-propanoic acid, trifluoroacetate salt]
IC50 [1]: 172 nM
IC50 (platelet rich plasma): > 200000 nM
IC50 (M21 human melanoma cells; Homo sapiens, M21): 24.3 nM
